Data reported in publication PMC3961306, “Comparison of the Cancer Gene Targeting and Biochemical Selectivities of All Targeted Kinase Inhibitors Approved for Clinical Use” (PLoS ONE, 2014).

Legend:
Assay in all cases: Kinase profiling in a biochemical assay panel (mobility shift assays and ELISA), %-inhibition at 1 μM; selectivity entropy
[1] = molecular target: panel of more than 300 wild-type and mutant kinases (313 kinase panel) (Homo sapiens, UniProt Q96SB4); details: kinase SRPK1; 1 μM
[2] = molecular target: panel of more than 300 wild-type and mutant kinases (313 kinase panel) (Homo sapiens, UniProt P07949, M918T)
[3] = molecular target: panel of more than 300 wild-type and mutant kinases (313 kinase panel) (Homo sapiens, UniProt Q15349); details: kinase RSK3; 1 μM
[4] = molecular target: T1, panel of more than 300 wild-type and mutant kinases (313 kinase panel) (Homo sapiens, UniProt Q96PY6)
T1 sequence (Q96PY6 1-1258): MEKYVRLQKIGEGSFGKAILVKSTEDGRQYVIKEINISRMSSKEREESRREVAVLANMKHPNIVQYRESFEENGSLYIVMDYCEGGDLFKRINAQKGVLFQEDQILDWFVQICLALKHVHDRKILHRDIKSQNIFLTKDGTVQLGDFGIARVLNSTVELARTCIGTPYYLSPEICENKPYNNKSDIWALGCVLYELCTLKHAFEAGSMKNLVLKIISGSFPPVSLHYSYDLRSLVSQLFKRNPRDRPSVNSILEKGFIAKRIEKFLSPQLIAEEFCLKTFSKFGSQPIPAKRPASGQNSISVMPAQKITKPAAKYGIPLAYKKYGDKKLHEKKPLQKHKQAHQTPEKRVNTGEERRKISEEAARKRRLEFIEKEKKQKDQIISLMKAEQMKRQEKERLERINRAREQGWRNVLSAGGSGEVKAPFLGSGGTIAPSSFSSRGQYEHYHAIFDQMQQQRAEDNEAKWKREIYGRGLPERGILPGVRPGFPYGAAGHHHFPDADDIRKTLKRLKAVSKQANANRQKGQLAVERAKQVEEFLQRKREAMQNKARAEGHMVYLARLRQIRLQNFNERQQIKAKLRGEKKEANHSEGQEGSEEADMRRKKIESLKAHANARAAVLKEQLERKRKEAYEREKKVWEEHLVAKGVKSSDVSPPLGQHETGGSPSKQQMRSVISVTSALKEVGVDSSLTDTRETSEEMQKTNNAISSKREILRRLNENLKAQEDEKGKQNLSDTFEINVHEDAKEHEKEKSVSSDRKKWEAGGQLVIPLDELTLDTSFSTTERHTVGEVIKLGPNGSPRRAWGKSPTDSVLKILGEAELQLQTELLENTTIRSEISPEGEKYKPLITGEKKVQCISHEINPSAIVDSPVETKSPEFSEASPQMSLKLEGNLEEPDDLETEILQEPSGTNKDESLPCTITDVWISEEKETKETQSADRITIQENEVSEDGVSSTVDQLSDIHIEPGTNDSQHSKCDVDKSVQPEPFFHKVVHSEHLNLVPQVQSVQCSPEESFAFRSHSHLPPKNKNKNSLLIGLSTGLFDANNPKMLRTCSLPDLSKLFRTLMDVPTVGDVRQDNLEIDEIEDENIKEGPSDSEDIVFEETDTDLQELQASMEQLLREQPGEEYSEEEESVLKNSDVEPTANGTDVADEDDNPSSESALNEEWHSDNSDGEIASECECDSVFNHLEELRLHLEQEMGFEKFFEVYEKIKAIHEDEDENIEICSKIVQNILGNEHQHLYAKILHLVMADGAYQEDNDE

[5] = molecular target: panel of more than 300 wild-type and mutant kinases (313 kinase panel) (Homo sapiens, UniProt Q13464)
[6] = molecular target: panel of more than 300 wild-type and mutant kinases (313 kinase panel) (Homo sapiens, UniProt Q9UM73, F1174L); details: kinase ALK(F1174L); 1 μM compound
[7] = molecular target: panel of more than 300 wild-type and mutant kinases (313 kinase panel) (Homo sapiens, UniProt P50613); details: kinase CDK7/CycH/MAT1; 1 μM compound
[8] = molecular target: panel of more than 300 wild-type and mutant kinases (313 kinase panel) (Homo sapiens, UniProt Q8N568); details: kinase DCAMKL2; compound at 1 μM
[9] = molecular target: panel of more than 300 wild-type and mutant kinases (313 kinase panel) (Homo sapiens, UniProt Q9UQM7)
[10] = molecular target: panel of more than 300 wild-type and mutant kinases (313 kinase panel) (Homo sapiens, UniProt P21802)
[11] = molecular target: panel of more than 300 wild-type and mutant kinases (313 kinase panel) (Homo sapiens, UniProt O14578); details: kinase CRIK; compound at 1 μM
[12] = molecular target: panel of more than 300 wild-type and mutant kinases (313 kinase panel) (Homo sapiens, UniProt Q9Y463); details: kinase DYRK1B; compound at 1 μM
[13] = molecular target: panel of more than 300 wild-type and mutant kinases (313 kinase panel) (Homo sapiens, UniProt P23443); details: kinase p70S6K; 1 μM
[14] = molecular target: panel of more than 300 wild-type and mutant kinases (313 kinase panel) (Homo sapiens, UniProt Q05397); details: kinase FAK; compound at 1 μM

Chain of panel of more than 300 wild-type and mutant kinases (313 kinase panel) (Homo sapiens, UniProt O14578) (O14578 whole entry, change not shown): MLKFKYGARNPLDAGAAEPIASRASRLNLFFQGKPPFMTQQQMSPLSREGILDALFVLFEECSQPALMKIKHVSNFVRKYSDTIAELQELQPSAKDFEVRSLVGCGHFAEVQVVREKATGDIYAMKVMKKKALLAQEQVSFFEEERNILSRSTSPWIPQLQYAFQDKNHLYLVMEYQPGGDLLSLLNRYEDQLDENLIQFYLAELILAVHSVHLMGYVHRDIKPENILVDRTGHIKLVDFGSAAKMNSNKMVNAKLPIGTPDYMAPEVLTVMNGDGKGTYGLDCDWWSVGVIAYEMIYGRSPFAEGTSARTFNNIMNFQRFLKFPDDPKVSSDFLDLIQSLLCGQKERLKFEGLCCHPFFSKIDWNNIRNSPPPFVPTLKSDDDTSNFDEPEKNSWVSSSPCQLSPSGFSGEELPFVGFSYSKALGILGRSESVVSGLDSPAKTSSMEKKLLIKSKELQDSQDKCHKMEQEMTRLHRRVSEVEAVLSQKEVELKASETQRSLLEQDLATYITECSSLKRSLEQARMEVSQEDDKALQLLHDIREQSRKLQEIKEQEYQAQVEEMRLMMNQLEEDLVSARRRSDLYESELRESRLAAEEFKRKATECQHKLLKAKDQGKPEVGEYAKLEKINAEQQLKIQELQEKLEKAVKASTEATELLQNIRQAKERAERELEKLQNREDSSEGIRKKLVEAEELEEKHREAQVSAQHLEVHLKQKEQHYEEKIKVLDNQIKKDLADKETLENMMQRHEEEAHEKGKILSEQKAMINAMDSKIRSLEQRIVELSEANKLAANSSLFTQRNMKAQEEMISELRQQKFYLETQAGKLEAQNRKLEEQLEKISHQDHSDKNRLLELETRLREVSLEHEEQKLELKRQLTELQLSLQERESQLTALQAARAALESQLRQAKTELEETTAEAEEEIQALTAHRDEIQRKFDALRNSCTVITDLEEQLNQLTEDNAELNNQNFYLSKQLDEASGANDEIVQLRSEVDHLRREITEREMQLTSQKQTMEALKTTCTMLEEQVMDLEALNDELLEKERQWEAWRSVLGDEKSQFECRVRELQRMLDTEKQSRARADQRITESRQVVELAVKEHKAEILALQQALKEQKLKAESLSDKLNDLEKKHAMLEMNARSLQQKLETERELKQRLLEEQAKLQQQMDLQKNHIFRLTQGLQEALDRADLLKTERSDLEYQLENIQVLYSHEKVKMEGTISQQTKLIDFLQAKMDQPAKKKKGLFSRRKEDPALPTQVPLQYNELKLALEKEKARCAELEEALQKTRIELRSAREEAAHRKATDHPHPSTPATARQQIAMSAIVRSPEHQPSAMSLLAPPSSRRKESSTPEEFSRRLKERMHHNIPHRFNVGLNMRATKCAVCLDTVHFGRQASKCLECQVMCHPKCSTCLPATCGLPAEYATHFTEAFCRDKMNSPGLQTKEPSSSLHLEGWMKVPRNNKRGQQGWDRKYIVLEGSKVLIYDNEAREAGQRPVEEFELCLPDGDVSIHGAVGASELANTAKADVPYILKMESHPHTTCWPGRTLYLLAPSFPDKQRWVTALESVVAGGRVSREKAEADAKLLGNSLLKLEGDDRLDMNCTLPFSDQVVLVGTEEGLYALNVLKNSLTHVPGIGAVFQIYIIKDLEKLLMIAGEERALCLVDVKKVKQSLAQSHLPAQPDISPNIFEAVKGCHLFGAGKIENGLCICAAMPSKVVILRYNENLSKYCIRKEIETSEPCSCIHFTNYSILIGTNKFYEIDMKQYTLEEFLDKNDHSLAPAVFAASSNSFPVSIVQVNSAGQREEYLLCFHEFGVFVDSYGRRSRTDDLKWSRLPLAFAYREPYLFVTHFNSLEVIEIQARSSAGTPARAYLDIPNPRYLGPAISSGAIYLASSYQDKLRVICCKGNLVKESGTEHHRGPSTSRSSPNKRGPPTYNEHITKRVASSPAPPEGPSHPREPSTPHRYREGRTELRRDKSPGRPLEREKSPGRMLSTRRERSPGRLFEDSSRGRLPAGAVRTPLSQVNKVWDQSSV
Chain of panel of more than 300 wild-type and mutant kinases (313 kinase panel) (Homo sapiens, UniProt Q9UQM7) (Q9UQM7 whole entry, change not shown): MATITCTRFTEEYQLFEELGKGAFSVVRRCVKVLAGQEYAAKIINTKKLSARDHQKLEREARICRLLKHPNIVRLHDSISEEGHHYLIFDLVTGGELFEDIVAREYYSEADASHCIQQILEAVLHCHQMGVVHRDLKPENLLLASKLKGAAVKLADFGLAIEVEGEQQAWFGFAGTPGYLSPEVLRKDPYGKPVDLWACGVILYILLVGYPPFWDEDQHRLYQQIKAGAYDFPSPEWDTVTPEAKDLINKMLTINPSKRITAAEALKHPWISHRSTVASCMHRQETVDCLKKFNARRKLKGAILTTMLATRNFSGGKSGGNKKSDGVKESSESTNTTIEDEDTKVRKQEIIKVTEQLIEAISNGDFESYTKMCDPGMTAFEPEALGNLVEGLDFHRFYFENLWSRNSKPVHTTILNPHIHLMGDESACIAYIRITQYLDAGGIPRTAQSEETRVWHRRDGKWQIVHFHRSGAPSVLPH
Chain of panel of more than 300 wild-type and mutant kinases (313 kinase panel) (Homo sapiens, UniProt Q96SB4) (Q96SB4 whole entry, stated change not applied): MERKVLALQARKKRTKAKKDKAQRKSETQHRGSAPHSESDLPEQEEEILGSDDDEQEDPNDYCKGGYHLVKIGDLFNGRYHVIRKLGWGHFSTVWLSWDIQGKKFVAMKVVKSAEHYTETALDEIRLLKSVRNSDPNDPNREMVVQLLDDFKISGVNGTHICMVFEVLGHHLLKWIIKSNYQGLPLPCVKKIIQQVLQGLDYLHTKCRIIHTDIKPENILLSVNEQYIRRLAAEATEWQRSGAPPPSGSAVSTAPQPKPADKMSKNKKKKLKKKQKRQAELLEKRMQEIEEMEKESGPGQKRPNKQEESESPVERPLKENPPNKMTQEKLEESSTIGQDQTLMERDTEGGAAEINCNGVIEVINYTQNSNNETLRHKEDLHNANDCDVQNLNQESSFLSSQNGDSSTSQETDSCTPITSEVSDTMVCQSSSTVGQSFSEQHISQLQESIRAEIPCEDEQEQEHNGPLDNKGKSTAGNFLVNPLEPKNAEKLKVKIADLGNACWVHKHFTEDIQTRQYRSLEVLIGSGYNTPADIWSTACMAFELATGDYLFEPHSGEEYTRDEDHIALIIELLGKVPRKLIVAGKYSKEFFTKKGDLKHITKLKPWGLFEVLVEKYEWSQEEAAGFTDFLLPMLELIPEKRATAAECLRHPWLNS
Chain of panel of more than 300 wild-type and mutant kinases (313 kinase panel) (Homo sapiens, UniProt P07949, M918T) (P07949 29-1114 M918T): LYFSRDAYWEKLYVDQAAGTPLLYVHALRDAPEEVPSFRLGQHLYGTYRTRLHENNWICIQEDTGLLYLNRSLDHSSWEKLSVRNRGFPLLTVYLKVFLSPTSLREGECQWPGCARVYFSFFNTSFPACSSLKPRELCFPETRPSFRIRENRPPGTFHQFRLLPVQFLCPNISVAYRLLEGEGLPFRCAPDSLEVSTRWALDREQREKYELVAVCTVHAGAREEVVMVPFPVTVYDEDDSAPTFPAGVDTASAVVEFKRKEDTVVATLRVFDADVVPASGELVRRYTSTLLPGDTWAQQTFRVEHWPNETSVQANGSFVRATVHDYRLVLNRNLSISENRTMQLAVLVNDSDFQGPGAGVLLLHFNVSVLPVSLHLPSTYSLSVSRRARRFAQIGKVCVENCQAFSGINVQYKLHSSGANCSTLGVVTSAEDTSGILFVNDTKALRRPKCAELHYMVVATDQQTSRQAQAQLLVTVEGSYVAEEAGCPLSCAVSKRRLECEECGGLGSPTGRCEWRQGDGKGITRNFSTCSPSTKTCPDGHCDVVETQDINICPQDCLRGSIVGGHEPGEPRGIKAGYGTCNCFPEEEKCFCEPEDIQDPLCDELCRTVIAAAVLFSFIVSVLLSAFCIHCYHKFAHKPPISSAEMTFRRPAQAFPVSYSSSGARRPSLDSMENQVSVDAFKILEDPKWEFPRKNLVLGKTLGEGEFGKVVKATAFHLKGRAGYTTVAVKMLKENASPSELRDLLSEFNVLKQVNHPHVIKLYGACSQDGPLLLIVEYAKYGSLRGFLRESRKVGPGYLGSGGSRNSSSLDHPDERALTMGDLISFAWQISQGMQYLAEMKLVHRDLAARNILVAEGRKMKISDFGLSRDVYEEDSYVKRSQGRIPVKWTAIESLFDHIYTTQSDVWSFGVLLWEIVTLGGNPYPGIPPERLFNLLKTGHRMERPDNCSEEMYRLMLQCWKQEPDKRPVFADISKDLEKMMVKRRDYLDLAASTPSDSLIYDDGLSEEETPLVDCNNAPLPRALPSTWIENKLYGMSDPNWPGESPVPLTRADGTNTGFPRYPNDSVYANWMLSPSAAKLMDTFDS
Chain of panel of more than 300 wild-type and mutant kinases (313 kinase panel) (Homo sapiens, UniProt P50613) (P50613 whole entry, change not shown): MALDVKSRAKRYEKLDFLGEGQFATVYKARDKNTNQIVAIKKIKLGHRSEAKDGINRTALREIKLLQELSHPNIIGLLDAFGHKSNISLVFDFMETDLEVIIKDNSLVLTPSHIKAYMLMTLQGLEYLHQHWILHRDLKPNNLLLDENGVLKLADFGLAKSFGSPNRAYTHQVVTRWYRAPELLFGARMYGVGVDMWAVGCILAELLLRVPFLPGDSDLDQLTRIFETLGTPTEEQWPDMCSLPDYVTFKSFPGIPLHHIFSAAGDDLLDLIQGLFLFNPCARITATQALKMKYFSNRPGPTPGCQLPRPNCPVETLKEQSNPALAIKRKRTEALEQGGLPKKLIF

SMILES	%-inhibition of SRPK1 [1] [%]	%-inhibition of RET(M918T) ([2]; kinase RET(M918T), 1 μM) [%]	%-inhibition of RSK3 [3] [%]	%-inhibition of NEK1 ([4]; kinase NEK1, 1 μM) [%]	%-inhibition of ROCK1 ([5]; kinase ROCK1, 1 μM) [%]	%-inhibition, ALK(F1174L) [6] [%]	%-inhibition, CDK7/CycH/MAT1 [7] [%]	%-inhibition of DCAMKL2 [8] [%]	%-inhibition, CaMK2α ([9]; kinase CaMK2α, 1 μM compound) [%]	%-inhibition of FGFR2 ([10]; kinase FGFR2, compound at 1 μM) [%]	%-inhibition of CRIK [11] [%]	%-inhibition of DYRK1B [12] [%]	%-inhibition of p70S6K [13] [%]	%-inhibition of FAK [14] [%]	%-inhibition of RET(M918T) ([2]; 1 µM) [%]	%-inhibition of NEK1 ([4]; 1 µM) [%]	%-inhibition, CaMK2α ([9]; 1 µM) [%]	%-inhibition of FGFR2 ([10]; 1 µM) [%]	%-inhibition of ROCK1 ([5]; 1 µM) [%]
CO[C@H]1C[C@@H]2CC[C@@H](C)[C@@](O)(O2)C(=O)C(=O)N2CCCC[C@H]2C(=O)O[C@H]([C@H](C)C[C@@H]2CC[C@@H](OCCO)[C@H](OC)C2)CC(=O)[C@H](C)/C=C(\C)[C@@H](O)[C@@H](OC)C(=O)[C@H](C)C[C@H](C)/C=C/C=C/C=C/1C [everolimus]	1.69	-4.61	-9	-7	-3.7	-3.68	-6	-5.64	-8	-10	-14	-8	-13	-4	–	–	–	–	–
CS(=O)(=O)CCNCc1ccc(-c2ccc3ncnc(Nc4ccc(OCc5cccc(F)c5)c(Cl)c4)c3c2)o1 [lapatinib]	0.333	–	5.43	–	-2.62	1.61	2	7	–	–	7	3	8	10	-4.37	1.5	-4.56	0.434	–
Cc1cn(-c2cc(NC(=O)c3ccc(C)c(Nc4nccc(-c5cccnc5)n4)c3)cc(C(F)(F)F)c2)cn1 [nilotinib]	3	–	11	-23	–	-45	-2.34	-17	-5	–	-16	-7.58	2	3.25	0.118	–	–	-67	-17
Cc1ccc(Nc2nccc(N(C)c3ccc4c(C)n(C)nc4c3)n2)cc1S(N)(=O)=O [pazopanib]	8	86	7	2.41	-1.24	26	9	-2.72	-0.797	97	-2	-3	17	46	–	–	–	–	–
CNC(=O)c1cc(Oc2ccc(NC(=O)Nc3ccc(Cl)c(C(F)(F)F)c3)c(F)c2)ccn1 [regorafenib]	27	–	45	-7	11	-7.49	-3	-6	-1.57	103	-18	-7.4	92	-1.14	102	–	–	–	–
CO[C@H]1C[C@@H]2CC[C@@H](C)[C@@](O)(O2)C(=O)C(=O)N2CCCC[C@H]2C(=O)O[C@H]([C@H](C)C[C@@H]2CC[C@@H](OC(=O)C(C)(CO)CO)[C@H](OC)C2)CC(=O)[C@H](C)/C=C(\C)[C@@H](O)[C@@H](OC)C(=O)[C@H](C)C[C@H](C)/C=C/C=C/C=C/1C [temsirolimus]	6	-3.41	-3	-8	-0.679	-6	-8	-4	-7	-9	-15	-11	-13	-5.48	–	–	–	–	–
CC(=O)Nc1cccc(-n2c(=O)n(C3CC3)c(=O)c3c(Nc4ccc(I)cc4F)n(C)c(=O)c(C)c32)c1 [trametinib]	-0.0691	-1.41	-5	-5	3.21	-7	-6	-2.4	-1.65	-2.64	-4.25	3.34	-1.39	-2.41	–	–	–	–	–
CCCS(=O)(=O)Nc1ccc(F)c(C(=O)c2c[nH]c3ncc(-c4ccc(Cl)cc4)cc23)c1F [vemurafenib]	2	11	-0.497	-2.74	1.28	-1.36	0.137	-3.52	-4.25	10	-6	-1.74	9	-3.55	–	–	–	–	–
